Laboratory results taken from patent publication US8119614B2, “Substitution derivatives of N6-benzyladenosine, methods of their preparation, their use for preparation of drugs, cosmetic preparations and growth regulators, pharmaceutical preparations, cosmetic preparations and growth regulators containing these compounds” (Ustav Experimentalni Botaniky Akademie Ved Ceske Republiky, priority 2002, dated 2012).

Assays:
HL-60 cells = experiment: HL-60 cell proliferation and viability (FDA/PI staining); assay type: cell-based, human
Method: Cell culture. A suspension of human promyelocytic HL-60 cells was cultured in RPMI-1640 medium supplemented with a 10% calf foetal serum and antibiotics in 5% CO2 atmosphere at 37° C. Cells were maintained at density from 1×10^5 to 6×10^5 cells per ml. HL-60 cells were obtained from ECACC.
Cell viability assay. Double staining with fluorescein diacetate (FDA) and propidium iodide (PI) for discrimination of dead and living cells was used. Cells were stained in growing medium with PI at a concentration 10 μg/ml 5 min later FDA was added at a concentration 1 μg/ml. The percentage of dead cells (i.e., red stained cells) was evaluated using fluorescence microscopy (Mlejnek and Kolman 1999).

caspase-9 = experiment: Caspase protease activity measurement in cell extracts, caspase-9; assay type: cell-based, human; settings: 20 μM, substrate Ac-LEHD-AFC (FIG. 9)
Method: Caspase protease activity measurement. Cells were washed in PBS and then extracted in buffer [50 mM HEPES, pH 7.4, 1 mM EDTA, 0.1% Chaps, 5 mM DTT, and proteinase inhibitor cocktail (Roche)] on ice. Cell extracts were centrifuged for 30 min at 30 000×g at 4° C. Clarified extract were immediately analysed or stored at −80° C. […] The assay was carried out in 1 ml tubes, aliquots of lysates (200-300 μg of total protein) were mixed with 1 ml of buffer (25 mM PIPES/KOH, 2 mM EGTA, 5 mM DTT, and 0.1% Chaps, pH 7.3) and reactions were initiated by adding 50 μM substrate. Samples were incubated for 1 hour at 30° C. before the fluorescence was determined. Excitation and emission wavelengths were the same for both substrates (380 nm and 445 nm, respectively).

caspase-3 = experiment: Caspase protease activity measurement in cell extracts, caspase-3; assay type: cell-based, human; settings: 20 μM, substrate Ac-DEVD-AMC (FIG. 9)
Method: Caspase protease activity measurement. Cells were washed in PBS and then extracted in buffer [50 mM HEPES, pH 7.4, 1 mM EDTA, 0.1% Chaps, 5 mM DTT, and proteinase inhibitor cocktail (Roche)] on ice. Cell extracts were centrifuged for 30 min at 30 000×g at 4° C. Clarified extract were immediately analysed or stored at −80° C. Measurement of proteolytic activity was done using synthetic fluorogenic substrates Ac-DEVD-AMC and Ac-LEHD-AMC for caspase-3 and -9, respectively. The assay was carried out in 1 ml tubes, aliquots of lysates (200-300 μg of total protein) were mixed with 1 ml of buffer (25 mM PIPES/KOH, 2 mM EGTA, 5 mM DTT, and 0.1% Chaps, pH 7.3) and reactions were initiated by adding 50 μM substrate. Samples were incubated for 1 hour at 30° C. before the fluorescence was determined. Excitation and emission wavelengths were the same for both substrates (380 nm and 445 nm, respectively).

[1] = tested on: human malignant melanoma cells G361; experiment: In vitro cytotoxic activity, Calcein AM assay, G-361; assay type: cell-based; settings: 72 hours, read-out: IC 50 G-361
Summary of the method: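 GI50 values come from dose-response curves of Calcein AM fluorescence, normalised to control wells, after 72 h compound exposure. Cells grown in DMEM with 10% fetal calf serum; routine highest concentration 166.7 μM, duplicates.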

Rosa multiflora = experiment: In vitro and post vitro multiplication and rooting of rose; assay type: in vivo; settings: for Root number per plant / Total root length per plant (cm): Ex vitro, after four weeks of acclimatising; for Flower number per explant / Number of new shoots per explant / Root number per explant / Total root length per explant (cm): In vitro, 10 μM, 8 weeks
Rosa hybrida ‘Pailin’ = experiment: Early shoot senescence inhibition of tissue cultured roses; assay type: in vivo; settings: 10 μM in medium
Method: Rosa hybrida ‘Pailin’ (a cut rose) was cultured in 350 ml vessels with a screw on polycarbonate lid. Each culture vessel contained 100 ml autoclaved medium (120° C., 20 min). The cultures were maintained at 23±2° C. under a 16 h photoperiod at […] m^−2 s^−1 PAR. The basal medium (MBR) contained Murashige and Skoog (1962) macroelements, microelements and vitamins, 36.7 mg/l NaFeEDTA, 50 mg/l NaFeEDDHA, […], 30 g/l sucrose, 100 mg/l glycine, 50 mg/l calcium pantothenate, 100 mg/l L-glutamine and 7 g/l agar-agar. This medium was supplemented with 10 μM of the tested cytokinin. New cytokinins were filter sterilised and added after autoclaving the medium in the vessels. 6-Benzylaminopurine (BAP) was used as a standard compound; the control medium didn't contain any cytokinin. After a culture period of 6 weeks, scoring senescence symptoms was started.

COc1cccc(CNc2ncnc3c2ncn3[C@@H]2O[C@H](CO)[C@@H](O)[C@H]2O)c1O [2-hydroxy-3-methoxybenzylamino, 6-(2-hydroxy-3-methoxybenzylamino)purine riboside]
inhibition of HL-60 cell proliferation (HL-60 cells; 2.5-60 μM (FIG. 4)): inhibit cell proliferation | cytotoxicity of the compound itself versus its phosphorylated forms (HL-60 cells; HL-60 cells): is not cell cytotoxic by itself | activation of caspase-9 (caspase-9): activate caspase proteases, especially caspase-9 and -3 | activation of caspase-3 (caspase-3): activate caspase proteases, especially caspase-9 and -3 | IC50 [1]: 148 µM

COc1cccc(CNc2ncnc3c2ncn3[C@@H]2O[C@H](CO)[C@@H](O)[C@H]2O)c1 [3-methoxybenzylamino, 6-(3-methoxybenzylamino)purine riboside]
Root number per plant (Rosa multiflora): 1.4 | Total root length per plant (cm) (Rosa multiflora): 3.5 cm | Flower number per explant (Rosa multiflora): 0.00 | Number of new shoots per explant (Rosa multiflora): 5.6 | Root number per explant (Rosa multiflora): 0.0 | Total root length per explant (cm) (Rosa multiflora): 0.0 cm | senescence / dying of rose explants (in words) (Rosa hybrida ‘Pailin’; listed as 3MeOBAPR): Even after 121 days almost all plants were still alive | senescence / dying of rose explants (in words) (Rosa hybrida ‘Pailin’; listed as mMeOBAPR): vigorous Rosa plantlet after 121 days of cultivation | IC50 [1]: > 167 µM

COc1ccccc1CNc1ncnc2c1ncn2[C@@H]1O[C@H](CO)[C@@H](O)[C@H]1O [2-methoxybenzylamino, 6-(2-methoxybenzylamino)purine riboside]
Root number per plant (Rosa multiflora): 1.6 | Total root length per plant (cm) (Rosa multiflora): 4.8 cm | Flower number per explant (Rosa multiflora): 0.17 | Number of new shoots per explant (Rosa multiflora): 1.4 | Root number per explant (Rosa multiflora): 0.0 | Total root length per explant (cm) (Rosa multiflora): 0.0 cm | IC50 [1]: > 167 µM

OC[C@H]1O[C@@H](n2cnc3c(NCc4cccc(F)c4)ncnc32)[C@H](O)[C@@H]1O [3-fluorobenzylamino, 6-(3-fluorobenzylamino)purine riboside]
IC50 [1]: 15.7 µM
